Two compounds from US20090149494A1, “THERAPEUTIC USE OF IMIDAZO[1,2-a]PYRIDINE-2-CARBOXAMIDE DERIVATIVES” (SANOFI-AVENTIS, priority 2006, published 2009) can be followed below.

In one assay the test system is human NOT receptor. Briefly: Binding to the human NOT receptor by SPR (Biacore). Particulars: immobilized GST-NOT (NOT-FL) and His-Thr-NOT 329-598, 3.75 to 0.1 μM, 4° C. How it is done:
The direct binding between compounds of the invention and the human NOT receptor was evaluated using the SPR (surface plasmon resonance) technique. In this test, the protein is immobilized covalently on the matrix and the test molecule is injected into the chamber containing the sensor chip. The signal is directly proportional to the amount of product bound to the protein. The binding tests were performed in a Biacore S51 machine (Biacore Inc., Piscataway N.J.). The entire GST-NOT protein (NOT-FL) was supplied by Invitrogen (PV3265). The domain for binding to the NOT ligand (His-Thr-NOT 329-598) was expressed and purified as described in Nature 423, 555-560. The two proteins, diluted to a concentration of 20 μg/ml in pH 5.0 acetate buffer containing 5 mM of DTT, were immobilized on a surface of carboxymethyl 5′ dextran (CM5 sensor chip, Biacore Inc.) via amine coupling according to the protocol recommended by Biacore, eluting with an HBS-N buffer (10 mM HEPES, 0.15 M NaCl, 3 mM EDTA, pH 7.4). Approximately 10 000-15 000 resonance units (R^U) of the proteins are captured on the surface of the sensor chip CM5. […] The dissociation was recorded for 5 minutes without any other surface regeneration procedure. […]

The target in another assay is T1, murine Nurr1 receptor (Mus musculus, UniProt Q06219).
T1 construct: endogenously expressing the murine Nurr1 receptor; host or cells: Neuro-2A (N2A) mouse neuroblastoma cells stably transfected with 8NBRE-luciferase
Briefly: In vitro activity on N2A cells (NBRE-luciferase reporter). The class given is cell-based. To be noted: N2A-8NBRE-luciferase cells, 24 hours incubation. How it is done: The tests consisted in evaluating the in vitro activity of the compounds of the invention on a cell line (N2A) endogenously expressing the murine Nurr1 receptor and stably transfected with the NOT binding response element (NBRE) coupled to the luciferase reporter gene. The EC50 values are between 0.01 and 1000 nM. The tests were performed according to the procedure described hereinbelow.
The cell line Neuro-2A is obtained from a standard commercial source (ATCC). The clone Neuro-2A was obtained from a spontaneous tumor originating from a strain of albino mice A by R. J Klebe et al. This line Neuro-2A is then stably transfected with 8NBRE-luciferase. The N2A-8NBRE cells are cultured to the point of confluence in 75 cm^2 culture flasks containing DMEM supplemented with 10% fetal calf serum, 4.5 g/L of glucose and 0.4 mg/ml of geneticin. After culturing for one week, the cells are recovered with 0.25% trypsin for 30 seconds and then resuspended in DMEM without phenol red, containing 4.5 g/L of glucose and 10% Hyclone defatted serum, and placed in white, transparent-based 96-well plates. The cells are deposited at a rate of 60 000 per well in 75 μL for 24 hours before adding the products. The products are applied in 25 μL and incubated for a further 24 hours. […] The plates are then measured in a microplate luminescence counter, after having been sealed with an adhesive film. […]

T1 sequence (Q06219 whole entry): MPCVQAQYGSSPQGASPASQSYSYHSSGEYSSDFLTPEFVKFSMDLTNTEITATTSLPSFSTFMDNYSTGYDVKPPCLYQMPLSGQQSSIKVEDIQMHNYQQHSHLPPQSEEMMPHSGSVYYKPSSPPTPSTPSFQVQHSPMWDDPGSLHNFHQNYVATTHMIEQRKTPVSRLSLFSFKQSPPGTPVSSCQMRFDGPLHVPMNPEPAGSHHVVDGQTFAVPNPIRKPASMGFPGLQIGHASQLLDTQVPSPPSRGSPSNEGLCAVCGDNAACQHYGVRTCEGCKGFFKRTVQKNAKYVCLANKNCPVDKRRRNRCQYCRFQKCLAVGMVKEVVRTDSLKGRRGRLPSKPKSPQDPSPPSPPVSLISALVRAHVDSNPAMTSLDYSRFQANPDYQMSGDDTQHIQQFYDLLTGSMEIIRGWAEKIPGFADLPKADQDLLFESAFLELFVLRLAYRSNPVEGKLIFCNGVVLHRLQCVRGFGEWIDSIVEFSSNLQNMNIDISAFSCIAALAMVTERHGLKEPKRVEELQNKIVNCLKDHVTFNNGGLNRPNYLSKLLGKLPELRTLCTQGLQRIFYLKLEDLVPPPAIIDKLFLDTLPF

`O=C(Nc1ccccc1)c1cn2ccccc2n1` [compound 1]: the “affinity (classified by maximum binding level and kinetic parameters of binding)” value in the assay with human NOT receptor is “moderate affinity”. At murine Nurr1 receptor, this compound returned a half-maximal effective concentration (EC50) of 5.5 nM.

`O=C(Nc1ccc(F)cc1)c1cn2cc(Cl)ccc2n1` [compound 2]: at murine Nurr1 receptor, a half-maximal response (EC50) required 17 nM. In other words, the double-digit nanomolar range.
